# In PMC10766964, “Copper-catalyzed synthesis of pyrazolo[1,5-a]pyrimidine based triazole-linked glycohybrids: mechanistic insights and bio-applications” (Scientific Reports, 2024):
# Where two headings read alike, the source gives them in different places.
# System: MDA-MB-231 (human breast cancer) cell line
# Assay: MTT cell viability assay in MDA-MB-231 cells
# Assay type: cell-based
# Conditions: 72 h
# Protocol: Thus, we screened the synthesized library of pyrazolo[1,5-a]pyrimidin-7-ols 4a–4i. Anticancer activity (in terms of growth inhibition/decreased cell viability with respect to control) of all synthesized compounds (n = 9) was investigated by MTT assay in MDA-MB-231 (human breast cancer) cell line at different concentrations for 72 h. […] Thus, it was aimed to investigate the anticancer activity of a synthesized library of triazole-linked glycohybrids of pyrazolo[1,5-a]pyrimidines. […] The MTT assay was used to investigate the anticancer activity of twenty-seven synthesized compounds on the growth inhibition and decrement in cell viability of MDA-MB-231 (human breast cancer). Different concentrations were tested for 72 h, and the results were compared to a control. MDA-MB-231, a human breast cancer cell line, was cultured under standard conditions. Specifically, they were grown in Dulbecco’s Modified Eagle’s Medium (DMEM) supplemented with 10% heat-inactivated Fetal Bovine Serum (FBS) and 1% penicillin–streptomycin. The cells were maintained as a monolayer in a 100 mm culture plate and were used for experiments before reaching their 8th passage. Subculturing was performed every third-day using trypsin EDTA treatment. All incubation and maintenance procedures were carried out in a humidified CO2 incubator at 37 °C. To evaluate cell viability, the MTT assay was conducted following standard procedures. After 72 h of cell incubation with or without each compound, cell viability was assessed using MTT (3-(4,5-dimethylthiazol-2-yl)-2,5-diphenyltetrazolium bromide), which is a colorimetric method for determining the number of viable cells in various assays including proliferation, cytotoxicity, or chemosensitivity. The MTT reagent was added to the cells after removal of the medium and incubated for 3 h at 37 °C in the CO2 incubator. The formazan product, which is […] in the tissue culture medium, was dissolved in DMSO, and the absorbance of the formazan product was directly measured at 595 nm using a multimode plate reader without additional processing. The absorbance values are directly proportional to the number of viable cells in culture. The percentage of viable cells in each group was determined relative to the untreated control cells.
# [1] = Table 1, MDA-MB-231, MTT, read-out: Cell Viability (%) ± SD
# [2] = Table 2, MDA-MB-231, MTT, read-out: Cell viability (%) ± SD
SMILES,viability at 10 µM [1],viability at 25 µM [1],viability at 50 µM [1],viability at 10 µM [2],viability at 25 µM [2],viability at 50 µM [2]
Cc1ccc(-c2cc(O)n3nccc3n2)cc1 [Compound 4a],91.4 ± 4.38%,85.5 ± 3.74%,84.4 ± 2.16%,–,–,–
COc1ccc(-c2cc(O)n3nccc3n2)cc1 [Compound 4b],85.1 ± 8.53%,80.1 ± 3.51%,70.5 ± 5.69%,–,–,–
Oc1cc(-c2ccc(Br)cc2)nc2ccnn12 [Compound 4c],100 ± 4.01%,99.1 ± 3.93%,96.5 ± 2.89%,–,–,–
Oc1cc(-c2ccc(Cl)cc2)nc2ccnn12 [Compound 4d],98.6 ± 2.25%,95.2 ± 1.96%,87.2 ± 9.22%,–,–,–
Oc1cc(-c2ccc(F)cc2)nc2ccnn12 [Compound 4e],86.6 ± 9.76%,78.1 ± 3.51%,69.5 ± 5.69%,–,–,–
Oc1cc(-c2ccc(C(F)(F)F)cc2)nc2ccnn12 [Compound 4f],92.2 ± 8.51%,88.8 ± 8.75%,72.8 ± 7.02%,–,–,–
"CC(C)c1ccc(-c2cc(O)n3nccc3n2)cc1 [Compound 4g, 5-(4-isopropylphenyl)pyrazolo[1,5-a]pyrimidin-7-ol]",101 ± 5.51%,98.1 ± 2.51%,70.5 ± 5.69%,–,–,–
Oc1cc(-c2ccc3ccccc3c2)nc2ccnn12 [Compound 4h],89.1 ± 4.09%,86.5 ± 2.58%,84.4 ± 7.36%,–,–,–
Oc1cc(-c2ccc3c(c2)OCO3)nc2ccnn12 [Compound 4i],96.6 ± 3.36%,89.1 ± 3.51%,73.5 ± 6.69%,–,–,–
"COc1ccc(-c2cc(OCc3cn([C@@H]4O[C@H](COC(C)=O)[C@@H](OC(C)=O)[C@H](OC(C)=O)[C@H]4OC(C)=O)nn3)n3nccc3n2)cc1 [Compound 9b, (2R,3R,4S,5R,6R)-2-(acetoxymethyl)-6-(4-(((5-(4-methoxyphenyl)pyrazolo[1,5-a]pyrimidin-7-yl)oxy)methyl)-1H-1,2,3-triazol-1-yl)tetrahydro-2H-pyran-3,4,5-triyl triacetate]",–,–,–,95.4 ± 5.38%,85.5 ± 6.74%,83.4 ± 4.16%
"CC(=O)OC[C@H]1O[C@@H](n2cc(COc3cc(-c4ccc(Br)cc4)nc4ccnn34)nn2)[C@H](OC(C)=O)[C@@H](OC(C)=O)[C@@H]1OC(C)=O [Compound 9c, (2R,3R,4S,5R,6R)-2-(acetoxymethyl)-6-(4-(((5-(4-bromophenyl)pyrazolo[1,5-a]pyrimidin-7-yl)oxy)methyl)-1H-1,2,3-triazol-1-yl)tetrahydro-2H-pyran-3,4,5-triyl triacetate]",–,–,–,100 ± 8.01%,100 ± 8.93%,99.5 ± 2.89%
"CC(=O)OC[C@H]1O[C@@H](n2cc(COc3cc(-c4ccc(F)cc4)nc4ccnn34)nn2)[C@H](OC(C)=O)[C@@H](OC(C)=O)[C@@H]1OC(C)=O [Compound 9e, (2R,3R,4S,5R,6R)-2-(acetoxymethyl)-6-(4-(((5-(4-fluorophenyl)pyrazolo[1,5-a]pyrimidin-7-yl)oxy)methyl)-1H-1,2,3-triazol-1-yl)tetrahydro-2H-pyran-3,4,5-triyl triacetate]",–,–,–,98.6 ± 2.25%,92.2 ± 1.96%,81.2 ± 9.22%
"CC(=O)OC[C@H]1O[C@@H](n2cc(COc3cc(-c4ccc(C(F)(F)F)cc4)nc4ccnn34)nn2)[C@H](OC(C)=O)[C@@H](OC(C)=O)[C@@H]1OC(C)=O [Compound 9f, (2R,3R,4S,5R,6R)-2-(acetoxymethyl)-6-(4-(((5-(4-(trifluoromethyl)phenyl)pyrazolo[1,5-a]pyrimidin-7-yl)oxy)methyl)-1H-1,2,3-triazol-1-yl)tetrahydro-2H-pyran-3,4,5-triyl triacetate]",–,–,–,92.2 ± 8.51%,88.8 ± 8.75%,73.8 ± 7.02%
